Test results: patent US8287923B2, “Compositions and methods for treating immune disorders” (priority 2005, dated 2012)

System: normal human epidermal keratinocytes (NHEK)
Test: Affymetrix gene array analysis, autoantigen gene expression
Type: cell-based
Conditions: 100 μM
Protocol: The gene array experiment was performed at the Core Facility of Genomics of the Medical College of Georgia, according to the instructions of the manufacturer (Affymetrix, Santa Clara, Calif.). Briefly, NHEK and OSC2 cells treated with 100 μM EGCG for different time period were extracted for total RNA, the RNA was processed for probes and hybridized with a cDNA microarray (HuG133A, Affymetrix) which represents 22,283 human series. DNA chips were read with a Hewlett-Packard GeneArray Scanner at a resolution of […] and were analyzed with the GeneSpring software (Silicon Genetics, Redwood City, Calif.). Details of this analysis will be published elsewhere (Hsu et al., manuscript in preparation).
Gene assays provide a valuable tool for studying the broad response of cells to agents, and we have used this approach to compare the differential effects of GTPP on gene expression in NHEK and human oral squamous carcinoma cells (Hsu, et al, manuscript in preparation). […] See also Hsu, S. et al. (2005) JPET 315:805-811, which is incorporated by reference in its entirety.

O=C(O[C@@H]1Cc2c(O)cc(O)cc2O[C@@H]1c1cc(O)c(O)c(O)c1)c1cc(O)c(O)c(O)c1 [EGCG, (−)-epigallocatechin-3-gallate]
60 kDa, SS-A/Ro (210438_x_at) expression, normalized (2 h): 0.92
60 kDa, SS-A/Ro (212852_s_at) expression, normalized (2 h): 0.98
Ku autoantigen, 80 kDa (208642_s_at) expression, normalized (2 h): 1.14
Ku autoantigen, 80 kDa (208643_s_at) expression, normalized (2 h): 1.40
Nuclear antigen SP100 (202863_at) expression, normalized (2 h): 1.04
Nuclear antigen SP100 (202864_s_at) expression, normalized (2 h): 1.21
Nuclear antigen SP10075 kDa (213226_at) expression, normalized (2 h): 1.09
RNA polymerase 1 (202692_s-at) expression, normalized (2 h): 0.48
SS-B/La (201138_s_at) expression, normalized (2 h): 0.88
SS-B/La (201139_s_at) expression, normalized (2 h): 0.74
centromere protein C1 (20473_at) expression, normalized (2 h): 0.46
coilin (203653_s_at) expression, normalized (2 h): 0.54
coilin (203654_s_at) expression, normalized (2 h): 0.78
fodrin-α (208611_s_at) expression, normalized (2 h): 0.75
fodrin-α (215235_s_at) expression, normalized (2 h): 0.97
golgin-67 (208797_s_at) expression, normalized (2 h): 0.71
golgin-67 (208798_x_at) expression, normalized (2 h): 0.46
golgin-67 (210425_x_at) expression, normalized (2 h): 0.47
golgin-67 (213650_at) expression, normalized (2 h): 0.61
scleroderma autoantigen 1, 75 kDa (213226_at) expression, normalized (2 h): 1.09
spectrin-β non-erythrocyctic 1 (212071_s_at) expression, normalized (2 h): 0.92
thyroid autoantigen 70 kDa (Ku antigen) (200792_at) expression, normalized (2 h): 1.19
ADPRT [poly(ADP)-ribose polymerase] expression (2 h, vs time zero): 1.201 fold
ANAP12 expression (2 h, vs time zero): 0.991 fold
ANXA11 expression (2 h, vs time zero): 1.26 fold
CALR expression (2 h, vs time zero): 0.943 fold
CBARA1 expression (2 h, vs time zero): 0.773 fold
CENPA expression (2 h, vs time zero): 1.095 fold
CENPB expression (2 h, vs time zero): 0.773 fold
CENPC1 expression (2 h, vs time zero): 0.457 fold
CHD4 expression (2 h, vs time zero): 0.811 fold
COL17A1 expression (2 h, vs time zero): 1.102 fold
CTDSP1 expression (2 h, vs time zero): 1.00 fold
CTDSP2 expression (2 h, vs time zero): 1.21 fold
CTDSPL expression (2 h, vs time zero): 1.12 fold
DLAT expression (2 h, vs time zero): 0.924 fold
EPPK1 expression (2 h, vs time zero): 0.856 fold
FBL expression (2 h, vs time zero): 1.12 fold
FLJ31657 expression (2 h, vs time zero): 0.608 fold
FLNB (Filamin B, β) expression (2 h, vs time zero): 1.168 fold
FLNB (Filamin B, γ) expression (2 h, vs time zero): 0.92 fold
G22P1 (Thyroid autoantigen, 70 kDa, Ku antigen) expression (2 h, vs time zero): 1.185 fold
GMEB2 expression (2 h, vs time zero): 0.739 fold
GOLGA1 expression (2 h, vs time zero): 0.182 fold
GOLGA2 expression (2 h, vs time zero): 0.642 fold
GOLGA3 expression (2 h, vs time zero): 0.58 fold
GOLGA4 expression (2 h, vs time zero): 0.748 fold
GOLGA5 expression (2 h, vs time zero): 0.928 fold
GOLGB1 expression (2 h, vs time zero): 0.704 fold
HARS expression (2 h, vs time zero): 1.11 fold
HARSL expression (2 h, vs time zero): 1.05 fold
HSA6591 expression (2 h, vs time zero): 0.835 fold
HUMAUANTIG expression (2 h, vs time zero): 0.779 fold
IMP-2 expression (2 h, vs time zero): 1.366 fold
LAD1 expression (2 h, vs time zero): 0.681 fold
LMO4 expression (repeat 1) (2 h, vs time zero): 0.867 fold
LMO4 expression (repeat 2) (2 h, vs time zero): 1.199 fold
MGC5560 expression (repeat 1) (2 h, vs time zero): 1.161 fold
MGC5560 expression (repeat 2) (2 h, vs time zero): 0.932 fold
NS (Nucleostemin) expression (2 h, vs time zero): 0.95 fold
PDHB expression (2 h, vs time zero): 1.14 fold
PDX1 expression (2 h, vs time zero): 0.765 fold
PMSCL1, 75 kDa expression (2 h, vs time zero): 1.09 fold
PMSCL2 expression (2 h, vs time zero): 0.938 fold
POLR1B expression (2 h, vs time zero): 1.03 fold
POLR1D expression (2 h, vs time zero): 0.96 fold
POLR2A expression (repeat 1) (2 h, vs time zero): 1.29 fold
POLR2A expression (repeat 2) (2 h, vs time zero): 0.45 fold
POLR2B expression (2 h, vs time zero): 1.02 fold
POLR2C expression (2 h, vs time zero): 1.60 fold
POLR2D expression (2 h, vs time zero): 0.95 fold
POLR2E expression (2 h, vs time zero): 0.70 fold
POLR2F expression (2 h, vs time zero): 1.00 fold
POLR2G expression (2 h, vs time zero): 1.02 fold
POLR2H expression (2 h, vs time zero): 0.85 fold
POLR3C expression (2 h, vs time zero): 0.73 fold
POLR3G expression (2 h, vs time zero): 1.00 fold
PSME3 expression (2 h, vs time zero): 1.151 fold
RALY expression (2 h, vs time zero): 0.752 fold
SART1 expression (2 h, vs time zero): 1.188 fold
SLC25A16 expression (2 h, vs time zero): 0.886 fold
SNRP70 expression (2 h, vs time zero): 1.01 fold
SNRPA expression (2 h, vs time zero): 0.93 fold
SNRPB2 expression (2 h, vs time zero): 0.67 fold
SNRPB expression (repeat 1) (2 h, vs time zero): 0.95 fold
SNRPB expression (repeat 2) (2 h, vs time zero): 0.79 fold
SNRPC expression (2 h, vs time zero): 1.08 fold
SNRPD1 expression (repeat 1) (2 h, vs time zero): 1.285 fold
SNRPD1 expression (repeat 2) (2 h, vs time zero): 0.676 fold
SOX13 expression (2 h, vs time zero): 0.771 fold
SP100 expression (repeat 1) (2 h, vs time zero): 1.037 fold
SP100 expression (repeat 2) (2 h, vs time zero): 1.205 fold
SP110 expression (repeat 1) (2 h, vs time zero): 1.702 fold
SP110 expression (repeat 2) (2 h, vs time zero): 1.804 fold
SP110 expression (repeat 3) (2 h, vs time zero): 1.026 fold
SPTAN1 (α-fodrin) expression (repeat 1) (2 h, vs time zero): 0.75 fold
SPTAN1 (α-fodrin) expression (repeat 2) (2 h, vs time zero): 0.97 fold
SPTBN expression (2 h, vs time zero): 0.92 fold
SSA2 (autoantigen SS-A/Ro) expression (repeat 2) (2 h, vs time zero): 0.919 fold
SSA2 expression (repeat 1) (2 h, vs time zero): 0.335 fold
SSA2 expression (repeat 3) (2 h, vs time zero): 0.957 fold
SSA2 expression (repeat 4) (2 h, vs time zero): 0.98 fold
SSB (autoantigen La) expression (repeat 1) (2 h, vs time zero): 0.878 fold
SSB (autoantigen La) expression (repeat 2) (2 h, vs time zero): 0.739 fold
SSNA1 expression (2 h, vs time zero): 1.17 fold
SSSCA1 expression (2 h, vs time zero): 1.694 fold
STRN3 expression (2 h, vs time zero): 0.623 fold
TOP1 expression (repeat 1) (2 h, vs time zero): 1.09 fold
TOP1 expression (repeat 2) (2 h, vs time zero): 0.62 fold
UBTF expression (2 h, vs time zero): 0.484 fold
XRCC5 (Ku autoantigen, 80 kDa) expression (repeat 1) (2 h, vs time zero): 1.403 fold
XRCC5 (Ku autoantigen, 80 kDa) expression (repeat 2) (2 h, vs time zero): 1.141 fold
dJ963E22.1 expression (2 h, vs time zero): 0.864 fold
α-NAC expression (2 h, vs time zero): 0.521 fold
60 kDa, SS-A/Ro (210438_x_at) expression, normalized (6 h): 0.69
